According to patent US20110268757A1, “USE OF PHENOL-SOLUBLE MODULINS FOR VACCINE DEVELOPMENT” (INSTITUT PASTEUR, priority 2008, published 2011):

What was measured:
[1] = tested on: bone marrow derived dendritic cells; assay: Binding of CFSE labeled peptides to bone marrow derived dendritic cells (flow cytometry); format: cell-based, mouse; details: 20 μM peptide, fixed cells, 30 minutes at 4° C.
Experimental: Dendritic cells were grown from bone marrow cells. After lysing the erythrocytes with ACK lysis buffer, the cells were washed and lymphocytes and granulocytes were removed by means of incubation with a mixture of antibodies against CD4 (GK1; ATCC, Manassas, Va.), CD8 (53.6.72; ATCC), Ly-6G/Gr1 (BD-Pharmingen; San Diego Calif.) and CD45R/B220 (BD-Pharmingen), followed by rabbit supplement. The remaining cells grew in 12 culture plates in complete medium with 10^6 cells/ml supplemented with 20 ng/ml of mGM-CSF and 20 ng/ml of mIL-4 (both from Peprotech; London, GB). Every 2 days the medium was substituted with fresh medium containing cytokines. On day 7, non-adherent dendritic cells were collected, and cultured in the presence or absence of 50 μM of modulin peptides or of 1 μg/ml of LPS (Sigma) and incubated for 48 hours at 37° C. and 5% CO2. After this period, the cells were isolated and incubated with anti IAb, CD54 and CD86 antibodies (Pharmingen). In parallel experiments, the dendritic cells were incubated with the indicated stimuli for 16 hours, after which the expression of the messenger RNA for the p40 molecules of IL-12 and of TNF-α was analyzed.

[2] = tested on: CD4, CD8, CD11c, CD19, F480 or GR1(CD117) positive splenocytes; details: total splenocytes, double staining, 20 μM
Experimental: (§4) Binding assays were carried out using either splenocytes (FIG. 1, panels A B, D, E and G) or bone marrow derived dendritic cells (FIG. 1, panels C and F). The cells were fixed by means of an incubation with a 0.4% glutaraldehyde solution for 15 minutes at 4° C. 5×10^5 fixed cells were incubated in the presence of 20 μM CFSE αMod-[sequence] (FIG. 1, panels A, B and C), or CFSE γMod-[sequence] (FIG. 1, panels D, E, F and G). In some assays, and to study the specificity of CFSE labeled peptide binding, these incubations were carried out in the presence or absence of the unlabeled peptides αMod-[sequence], γMod-[sequence] or [sequence] (100 μM) (panels B and E). Also, we carried out binding assays using the CFSE labeled peptide CFSE-OVA (235-264) as a negative control (FIG. 1, panels A, C, D and F). After 30 minutes of incubation at 4° C., two washings with PBS were carried out and the performed labeling was analyzed by flow cytometry. In some experiments (FIG. 1G), double staining was carried out using anti-CD4, CD8, CD11c, CD19, F480 or GR1(CD117) antibodies labeled with phycoerythrin (Pharmingen) together with the CFSE-γMod-[sequence] peptide. In these cases, the labeling with the specific antibodies was carried out before fixing the cells with glutaraldehyde.

[3] = tested on: splenocytes from C57BL/6 TLR2KO mice; assay: Binding of CFSE labeled peptides to fixed splenocytes from TLR2 KO mice (flow cytometry); format: cell-based, mouse; details: 20 μM peptide, 30 minutes at 4° C.
Experimental: Mouse splenocytes were purified from C57BL/6 TLR2KO mice after homogenizing the spleen. […] 5×10^5 fixed splenocytes were incubated in the presence of 20 μM CFSE γMod-SIINFEKL, CFSE αMod-SIINFEKL or CFSE-OVA (235-264) control peptide to show the binding specificity.

[4] = tested on: IFN-γ producing cells in the presence of the peptide E7(49-57); assay: ELISPOT of IFN-γ producing cells against peptide E7(49-57) after immunization; format: in vivo, C57BL6 mice; details: 5 nmoles peptide with 50 μg poly I:C, seven days after immunization
Experimental: C57BL6 mice were intravenously immunized with 5 nmoles of the indicated peptides in combination with 50 μg of the TLR3 ligand poly I:C. For the analysis of the IFN-γ producing cells in the presence of the peptide E7(49-57) and induced in vivo by the immunizations, the animals were sacrificed 7 days after the immunizations and ELISPOT experiments were conducted using a BD-pharmingen kit (San Diego, Calif.) as indicated above and using peptide E7(49-57) as an antigen.

[5] = tested on: TC-1 tumor cells (expressing the E7 protein of the HPV-16 virus); assay: Treatment of mice carrying TC1 subcutaneous tumors; format: in vivo, C57B/6 mice; details: TC1 tumors of 8 mm diameter, i.v. peptide plus 50 μg/ml poly I:C, second immunization seven days later
Experimental: The C57B/6 mice were subcutaneously injected with 5×10^5 TC-1 tumor cells (expressing the E7 protein of the HPV-16 virus). After 25 days, when the tumor reaches a diameter of 8 mm, the mice are intravenously treated with PBS (B), with peptide E7(49-57) plus 50 μg/ml poly I:C(C), or with peptide αMod-E7(49-57) plus 50 μg/ml poly I:C (D). Seven days later, the mice received a second immunization of the same immunogens. The tumor size, presented as the average of two perpendicular diameters, was measured at regular intervals using a gauge. The number of tumor-free mice relative to the total number of animals per group is included for each treatment.

[6] = tested on: T cells from OT-1 transgenic mice; assay: Antigen presentation assay: proliferation of OT-1 T cells (tritiated thymidine); format: cell-based, mouse; details: dendritic cells incubated with 10 μM peptide
Experimental: Dendritic cells derived from bone marrow were cultured in the presence or absence of 10 μM of the indicated peptides (FIG. 3). Forty hours later, the cells were washed and distributed in 96-well plates at different concentrations and incubated in the presence of 10^5 T cells/well obtained from OT-1 transgenic mice (which express a specific T receptor for the SIINFEKL peptide of ovalbumin. Seventy-two hours later, tritiated thymidine was added to the cultures and six hours later the cells were harvested and the incorporated thymidine was analyzed in a scintillation counter (Topcount Packard).

[7] = tested on: splenocytes pulsed with the SIINFEKL peptide; assay: In vivo killing assay against SIINFEKL-pulsed splenocytes in TLR2 KO mice; details: mice lacking TLR2, 5 nmoles peptide with 50 μg poly I:C, seven days; level similar to wild type
Experimental: (§1) C57BL6 wild type mice and knockout mice were immunized for TLR2 with the aim of studying the dependence on TLR2 in the immunostimulating capacity of modulin-derived peptides. Thus, different mice were injected with 5 nmoles of the indicated peptides or with PBS in combination with 50 μg of the TLR3 ligand poly I:C. Seven days after the immunization, the mice were intravenously injected with a mixture of 5×10^6 splenocytes, half of which had been previously labeled with a dose of 0.25 μM C and the other half with 2.5 μM CFSE and the SIINFEKL peptide (10 μg/ml). On the following day, the mice were sacrificed and the splenocytes were analyzed by flow cytometry to quantify the number of cells with high CFSE labeling with respect to the cells with low CFSE labeling in the same manner as in Example 3.

EG7OVA tumor cells [8] = assay: Protection against the challenge with EG7OVA tumor cells after immunization; format: in vivo, C57BL/6 mice; details: 5 nmoles peptide with poly I:C
Experimental: Protection against the challenge with EG7 tumor cells expressing the OVA protein C57BL6 mice were subcutaneously immunized with 5 nmol of the indicated peptides in combination with poly I:C. […] In some experiments, mice were first challenged s.c with 5×10^5 cells and when tumors reached 5 mm in diameter they were treated with the indicated peptide. The tumor growth was controlled with a gage. Mice were sacrificed when the tumor reached a volume greater than 4 cm^3. Kaplan-Meier plot of mice survival for each immunogen is depicted.

mouse splenocytes = assay: Binding of CFSE labeled peptides to glutaraldehyde-fixed splenocytes (flow cytometry); format: cell-based; details: unlabeled competitor 100 μM
Experimental: as §4

[9] = tested on: IFNγ-producing cells in response to the SIINFEKL peptide; assay: ELISPOT of IFNγ-producing cells specific for SIINFEKL after immunization; format: in vivo, C57BL/6 mice; details: for IFNγ-producing cells in response to SIINFEKL (ELISPOT): 5 nmoles peptide plus 50 μg poly I:C, seven days after immunization; for IFN-γ-producing cells specific for SIINFEKL (ELISPOT): Example 4, C57BL/6 wild type mice, 5 nmoles peptide with 50 μg poly I:C, seven days
Experimental: (§2) C57BL6 mice were intravenously immunized intravenously with 5 nmoles of the indicated peptides in combination with 50 μg of the TLR3 ligand poly I:C. In some cases, the peptides were immunized in the presence of TLR2 (peptidoglycan), TLR4 (LPS or the EDA protein) or TLR9 (CpG) ligand. Seven days after the immunization, the mice were intravenously injected with a mixture of 5×10^6 splenocytes, half of which had been previously labeled with a dose of 0.25 μM C and the other half with 2.5 uM CFSE and the SIINFEKL peptide (10 μg/ml). On the following day, the mice were sacrificed and the splenocytes were analyzed by flow cytometry to quantify the number of cells with high CFSE labeling with respect to the cells with low CFSE labeling. Thus, the percentage of cell lysis of the cells incubated with the cytotoxic SIINFEKL peptide can be calculated in an experiment called in vivo killing.
For the analysis of IFNγ-producing cells specific for SIINFEKL and induced in vivo by the immunizations, ELISPOT experiments were carried out using a BD-pharmingen kit (San Diego, Calif.) and according to the instructions of the manufacturer. Briefly, the plates (Multiscreen HTS, Millipore, Bedford, Mass.) incubated overnight with the anti-IFNγ antibody were blocked for 2 hours with HL-1 medium (Biowhittaker, Verviers, Belgium) containing 10% horse serum. Thus, 5×10^5 splenocytes were incubated in triplicate in the absence or in the presence of the antigens at 37° C. and 5% CO2. On the following day, the plates were washed with PBS and incubated with biotinylated anti-IFNγ antibody (2 mg/ml). After two hours, the plates were washed and incubated with a 1/100 dilution of streptavidin-peroxidase. One hour later, the wells were washed and developed using the AEC substrate set (BD-Pharmingen). The colorimetric reaction was stopped with distilled water and the number of spots was quantified using an ELISPOT automatic reader (CTL, Aalen, Germany).
(§3) For the analysis of IFNγ-producing cells in the presence of SIINFEKL and induced in vivo by the immunizations, ELISPOT experiments were carried out using a BD-pharmingen kit (San Diego, Calif.) and according to the instructions of the manufacturer, in the same manner as in Example 3.

[10] = tested on: IFNγ-producing cells in response to the SIINFEKL peptide; assay: ELISPOT of IFNγ-producing cells specific for SIINFEKL in TLR2 KO mice; format: in vivo; details: mice lacking TLR2, 5 nmoles peptide with 50 μg poly I:C, seven days; level similar to wild type
Experimental: as §3

EG7OVA tumor cells [11] = assay: Treatment of mice bearing established EG7OVA tumors; format: in vivo, C57BL/6 mice; details: EG7OVA tumors of 5 mm diameter at treatment, peptide plus poly I:C, p<0.05
Experimental: Protection against the challenge with EG7 tumor cells expressing the OVA protein C57BL6 mice were subcutaneously immunized with 5 nmol of the indicated peptides in combination with poly I:C. Seven days after the immunization, the mice were subcutaneously injected with 5×10^5 or with 5×10^7 EG7OVA cells. In some experiments, mice were first challenged s.c with 5×10^5 cells and when tumors reached 5 mm in diameter they were treated with the indicated peptide. The tumor growth was controlled with a gage. Mice were sacrificed when the tumor reached a volume greater than 4 cm^3. Kaplan-Meier plot of mice survival for each immunogen is depicted.

[12] = tested on: splenocytes pulsed with the SIINFEKL peptide; assay: In vivo killing assay against SIINFEKL-pulsed splenocytes after immunization; design: species or system C57BL/6 mice; details: for specific cytotoxic activity against SIINFEKL (in vivo killing): 5 nmoles peptide plus 50 μg poly I:C, seven days after immunization; for effect of combination with TLR3 ligand on activation of the cytotoxic response (in vivo killing): 5 nmoles peptide with 50 μg TLR3 ligand (poly I:C); for effect of combination with TLR3 ligand on activation of the cytotoxic response (in vivo killing) / effect of combination with TLR9 ligand on activation of the cytotoxic response (in vivo killing) / cytotoxic T responses against SIINFEKL target cells (in vivo killing): seven days; for effect of combination with TLR9 ligand on activation of the cytotoxic response (in vivo killing): 5 nmoles peptide with 50 μg TLR9 ligand (CpG); for cytotoxic T responses against SIINFEKL target cells (in vivo killing): Example 4, C57BL/6 wild type mice, 5 nmoles peptide with 50 μg poly I:C
Experimental: as §2, with “Seven days after the immunization, the mice were intravenously injected with a mixture of 5×10^6 splenocytes, half of which had been previously labeled with a dose of 0.25 μM C and the other half with 2.5 uM CFSE and the SIINFEKL peptide (10 μg/ml).” left out
as §1, with “Seven days after the immunization, the mice were intravenously injected with a mixture of 5×10^6 splenocytes, half of which had been previously labeled with a dose of 0.25 μM C and the other half with 2.5 μM CFSE and the SIINFEKL peptide (10 μg/ml).” left out

Substance	proliferation of OT-1 T lymphocytes stimulated by peptide-incubated dendritic cells [6]	cytotoxic T responses against SIINFEKL target cells (in vivo killing) [7]	IFNγ-producing cells in response to SIINFEKL (ELISPOT) [9]	IFN-γ-producing cells specific for SIINFEKL (ELISPOT) [9]	IFN-γ-producing cells specific for SIINFEKL (ELISPOT) [10]	specific cytotoxic activity against SIINFEKL (in vivo killing) [12]	effect of combination with TLR3 ligand on activation of the cytotoxic response (in vivo killing) [12]	effect of combination with TLR9 ligand on activation of the cytotoxic response (in vivo killing) [12]	cytotoxic T responses against SIINFEKL target cells (in vivo killing) [12]	further results
CFSE-MAADIISTIGDLVKWIIDTVNKFKKSIINFEKL [CFSE-γMod-SIINFEKL]										binding of CFSE labeled peptide to bone marrow derived dendritic cells [1]: able to stain bone marrow derived dendritic cells; percentage of CD4+ cells stained with the CFSE peptide [2]: approximately 24.4%; percentage of CD8+ cells stained with the CFSE peptide [2]: ~17.8%; percentage of CD11c cells stained with the CFSE peptide [2]: ~62.1%; percentage of CD19 cells stained with the CFSE peptide [2]: ~52.8%; percentage of F418 cells stained with the CFSE peptide [2]: ~66.2%; percentage of GR1+ cells stained with the CFSE peptide [2]: ~27.3%; binding of CFSE labeled peptide to the surface of TLR2 KO splenocytes [3]: still retained the capacity to bind
MADVIAKIVEIVKGLIDQFTQKRAHYNIVTF [αMod-E7(49-57)]										response against the cytotoxic peptide E7 (49-57) (ELISPOT, IFN-γ producing cells) [4]: induces a specific cytotoxic response; number of tumor-free (cured) mice relative to the total number of mice [5]: 11 of 11
MAADIISTIGDLVKWIIDTVNKFKKSIINFEKL [γMod-SIINFEKL]	significantly better than OVA (235-264) peptide	also observed	production of IFNγ	is induced	also observed	strong cytotoxic responses	synergistic effect	synergistic effect	capable of inducing cytotoxic T responses	protection from tumor growth after EG7OVA challenge (EG7OVA tumor cells [8]; 7×10^5 EG7OVA cells s.c. seven days after immunization (FIG. 5B)): protected the mice from tumor growth; reduction of the bright fluorescence of CFSE γMod-SIINFEKL on splenocytes by unlabeled peptide (mouse splenocytes; 20 μM CFSE γMod-SIINFEKL): reduced the bright fluorescence; mice rejecting the established tumor (EG7OVA tumor cells [11]): about 38%
MADVIAKIVEIVKGLIDQFTQKSIINFEKL [αMod-SIINFEKL]	significantly better than OVA (235-264) peptide	also observed	production of IFNγ	is induced	also observed	strong cytotoxic responses	synergistic effect	synergistic effect	capable of inducing cytotoxic T responses	protection from tumor growth after EG7OVA challenge (EG7OVA tumor cells [8]; 5×10^5 EG7OVA cells s.c. seven days after immunization (FIG. 5A)): protected the mice from tumor growth; inhibition of the CFSE αMod-SIINFEKL signal on splenocytes by unlabeled peptide (mouse splenocytes; 20 μM CFSE αMod-SIINFEKL): significantly inhibited
